The target of experiment [1] is T1, human PTH1 receptor (Homo sapiens, UniProt Q03431).
T1 sequence (Q03431 27-593): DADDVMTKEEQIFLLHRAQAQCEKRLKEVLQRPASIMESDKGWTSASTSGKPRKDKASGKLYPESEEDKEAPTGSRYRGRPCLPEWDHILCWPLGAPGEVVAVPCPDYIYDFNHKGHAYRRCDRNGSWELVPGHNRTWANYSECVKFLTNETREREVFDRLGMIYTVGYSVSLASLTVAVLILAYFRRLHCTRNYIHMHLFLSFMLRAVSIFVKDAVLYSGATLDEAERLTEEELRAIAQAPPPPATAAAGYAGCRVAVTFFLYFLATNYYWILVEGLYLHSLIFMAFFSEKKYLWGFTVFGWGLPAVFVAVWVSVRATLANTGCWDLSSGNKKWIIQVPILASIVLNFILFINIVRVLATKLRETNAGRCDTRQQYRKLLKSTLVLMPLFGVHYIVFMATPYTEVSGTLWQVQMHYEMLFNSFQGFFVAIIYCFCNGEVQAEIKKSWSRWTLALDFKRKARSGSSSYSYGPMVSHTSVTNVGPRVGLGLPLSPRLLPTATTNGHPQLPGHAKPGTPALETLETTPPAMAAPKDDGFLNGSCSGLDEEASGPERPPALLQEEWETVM
Briefly: cAMP accumulation in HEK293 cells stably expressing the human PTH1 receptor (293PTH1). Type of experiment: cell-based. Also noted: expressed in transfected cells. For orientation: Changes in cAMP serve as a functional read-out for many G protein-coupled receptors.

Experiment [2] concerns the target T2, PTH2 receptor (Homo sapiens, UniProt P49190). Briefly: cAMP accumulation in HEK293 cells stably expressing the human PTH2 receptor (293PTH2). Type of experiment: cell-based. On the set-up: expressed in transfected cells. The note with it: 1 μM peptide.
Experimental: COS-7 cells were grown as previously described in Clark et al. For cAMP accumulation assays COS-7 cells were transfected as previously described in Clark et al. except that transfections were performed in 10 cm tissue culture dishes using 10 μg of plasmid DNA. The cells were transferred following trypsinization to 96-well plates at a density of 50,000 cells/well the following day. Cells were used for cAMP accumulation assays three days after transfection.
Ligand-stimulated accumulation of cAMP was measured as described in Examples, using a radioimmunoassay to quantify cAMP (Clark et al., supra).
For cAMP accumulation data y is the amount of cAMP produced at a given peptide concentration, min is the cAMP level in the absence of ligand and max is the maximum level produced. […] Statistical comparison of multiple means was performed initially by single-factor analysis of variance followed by post-hoc analysis with the Newman-Keuls test. Statistical comparison of two means was performed using a two-tailed Student's t-test.
The target in experiment [3] is T2, PTH2 receptor. The experiment can be described thus: cAMP accumulation in COS-7 cells transiently expressing the human PTH2 receptor. In kind it is cell-based. On the set-up: expressed in transfected cells; host or cells: COS-7 (transient). The conditions noted are these: COS-7. From the text:
Cell culture supplies were obtained from Life Technologies (Frederick, Md.) except for fetal bovine serum which was from Sigma (St. Louis, Mo.).
The constructs containing the cDNA sequences of the human PTH2 receptor and β-galactosidase have been previously described.
All peptides were purchased from either Bachem (Torrance, Calif.) or Peninsula Laboratories (Belmont, Calif.). The letters ‘b,’ ‘r’ and ‘h’ designate the peptide sequence as bovine, rat and human, respectively. […] [α-^32P]dCTP was purchased from ICN Biomedicals (Costa Mesa, Calif.). Bovine hypothalamic extract was prepared by acid extraction, gel-filtration and reverse-phase HPLC as previously described. […] Antagonist inhibitory potency was examined by measuring the concentration-dependence of rPTH(1–34)-stimulated cAMP accumulation in the presence and absence of antagonist.
Statistical comparison of two sample means was evaluated using the two-tailed Student's t-test. […] Antagonist inhibitory potency was quantified using the pA2, value, the negative logarithm of the concentration of antagonist that produces a two-fold decrease of agonist EC50. This was calculated using the following equation: pA2=((EC50/EC50′)−1)−log [antagonist]

In experiment [4] the target is T3, C-terminal hemaglutinin-tagged human PTH1 receptor (Homo sapiens, UniProt Q03431).
T3 sequence (Q03431 27-593): T1 sequence (Q03431 27-593)
The experiment can be described thus: cAMP accumulation in COS-7 cells expressing a C-terminal hemaglutinin-tagged human PTH1 receptor. Type of experiment: cell-based. The note with it: COS-7; five experiments; read-out: Emax, % of the maximal response to rPTH(1–34).

The target of experiment [5] is T1, human PTH1 receptor. Also noted: expressed in transfected cells; host or cells: COS-7 (transient). The conditions noted are these: cited from earlier work.
Experiment [6] concerns the target T1, human PTH1 receptor. Briefly: [125I]TIP(7–39) saturation and kinetic binding to the human PTH1 receptor in HEK293 cell membranes. On the set-up: expressed in transfected cells. As to the method: Binding of [^125I]TIP(7–39) to HEK293 membranes expressing the PTH1 receptor (FIGS. 21 and 22) was performed using rapid filtration to separate bound and free radioligand as described in Examples, using the assay buffer described above. Incubations were carried out in 96-well polypropylene plates. The incubation mixture was transferred to a polyvinylidene fluoride filtration plate (MAHVN45, Millipore, Bedford, Mass.) and the membranes collected by rapid filtration using a Millipore Multiscreen vacuum manifold. In saturation experiments, varying concentrations of [^125I]TIP(7–39) were incubated in triplicate with 10 μg membranes in the absence or presence of 1 μM unlabeled TIP(7–39) (for measurement of total binding and non-specific binding, respectively) for 1 hour at 21° C. In radioligand association experiments, radioligand and buffer were brought to 21° C. by incubation in a water bath for 15 minutes. Similarly pre-warmed membranes were then added to the wells at various time points and the assay wells harvested simultaneously. Non-specific binding in these experiments was defined using 300 nM unlabeled TIP(7–39), incubated with membranes and radioligand for 1 minute and 60 minutes. In the experiment in FIG. 23 a second, unlabeled ligand was included in the assay incubation in order to estimate the association and dissociation rate constants of the unlabeled ligand (see below). In dissociation experiments radioligand and membranes were equilibrated for 60 minutes prior to addition of unlabeled TIP(7–39) (300 nM final concentration) at various time points. All time points were harvested simultaneously. (As a result the shorter time points of the time course were equilibrated with radioligand for between 1 and 2 hours.) Non-specific binding was defined using 300 nM unlabeled TIP(7–39), which was included in the equilibration phase of the assay.
[^125I]TIP(7–39) saturation of the PTH1 receptor was analyzed as follows: First, non-specific binding (measured in the presence of 1 μM TIP(7–39)) was estimated as a fraction of the free radioligand concentration by linear regression. The values of KD and Bmax were obtained by fitting total binding data (measured in the absence of unlabeled ligand) to the following equation using Prism 2.01:
[^125I]TIP(7–39) association data (total binding) were fitted to a bi-exponential association equation to account for association to specific and non-specific sites (FIG. 23). This procedure was used because the value of non-specific binding measured after 60 minutes was slightly greater than the value measured after 1 minute. In the analysis the equilibrium level of non-specific binding was fixed at that measured at 60 minutes. The observed association rate constant for non-specific binding was high (>2 min^−1). The observed association rate of specific radioligand (L) binding (kon(obs)) was fitted by linear regression to the equation kon(obs)=koff+kon[L] where kon and koff are the association and dissociation rate constants respectively. [^125I]TIP(7–39) dissociation data were fitted to a mono-exponential dissociation equation.
The association and dissociation rate constants of unlabeled ligands were determined using the method devised by Motulsky and Mahan, Mol Pharmacol 25, 1–9, 1984, in which association of a radiolabeled antagonist ([^125I]TIP(7–39)) is measured in the presence of a fixed concentration of the unlabeled ligand. […]

Like-named read-outs stand apart in the source and are kept apart here. Non-standard residues stand in square brackets, D forms with d. Residues, ends and D or L forms follow the SMILES beside them. Tyr(3-I) = N[C@@H](Cc1ccc(O)c(I)c1)C(=O)O; Nle = CCCC[C@H](N)C(=O)O

T2 sequence (P49190 25-550): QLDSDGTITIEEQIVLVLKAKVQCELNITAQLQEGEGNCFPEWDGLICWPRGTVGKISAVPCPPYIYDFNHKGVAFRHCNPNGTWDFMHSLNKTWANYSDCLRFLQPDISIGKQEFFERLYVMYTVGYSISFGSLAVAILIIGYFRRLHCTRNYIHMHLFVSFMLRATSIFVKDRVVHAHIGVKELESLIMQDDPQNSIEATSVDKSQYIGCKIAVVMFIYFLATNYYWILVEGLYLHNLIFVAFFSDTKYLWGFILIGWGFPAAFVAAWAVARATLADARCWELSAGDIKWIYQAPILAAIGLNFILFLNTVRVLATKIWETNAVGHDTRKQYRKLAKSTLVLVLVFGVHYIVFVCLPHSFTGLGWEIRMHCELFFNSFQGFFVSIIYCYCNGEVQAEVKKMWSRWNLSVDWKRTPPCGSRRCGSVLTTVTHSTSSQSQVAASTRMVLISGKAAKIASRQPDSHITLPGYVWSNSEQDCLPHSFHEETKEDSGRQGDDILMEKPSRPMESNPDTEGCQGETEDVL

On to `CC[C@H](C)[C@H](NC(=O)[C@H](CCC(=O)O)NC(=O)[C@H](CO)NC(=O)[C@@H](NC(=O)[C@H](C)N)C(C)C)C(=O)N[C@@H](CCC(N)=O)C(=O)N[C@@H](CC(C)C)C(=O)N[C@@H](CCSC)C(=O)N[C@@H](Cc1c[nH]cn1)C(=O)N[C@@H](CC(N)=O)C(=O)N[C@@H](CC(C)C)C(=O)NCC(=O)N[C@@H](CCCCN)C(=O)N[C@@H](Cc1c[nH]cn1)C(=O)N[C@@H](CC(C)C)C(=O)N[C@@H](C)C(=O)N[C@@H](CO)C(=O)N[C@H](C(=O)N[C@@H](CCC(=O)O)C(=O)N[C@@H](CCCNC(=N)N)C(=O)N[C@@H](CCSC)C(=O)N[C@@H](CCC(N)=O)C(=O)N[C@@H](Cc1c[nH]c2ccccc12)C(=O)N[C@@H](CC(C)C)C(=O)N[C@@H](CCCNC(=N)N)C(=O)N[C@@H](CCCCN)C(=O)N[C@@H](CCCCN)C(=O)N[C@@H](CC(C)C)C(=O)N[C@@H](CCC(N)=O)C(=O)N[C@@H](CC(=O)O)C(=O)N[C@H](C(=O)N[C@@H](Cc1c[nH]cn1)C(=O)N[C@@H](CC(N)=O)C(=O)N[C@@H](Cc1ccccc1)C(=O)O)C(C)C)C(C)C` [PTH], for which the “stimulation of cAMP accumulation” value on human PTH1 receptor [1] (1 μM peptide) and on PTH2 receptor [2] was “approximately 50 fold” in each case.

By EC50 is commonly meant the concentration needed to bring the measured effect to its halfway point. Broadly, the Emax is the greatest response seen or fitted, relative to the assay's reference. The term Kd denotes the equilibrium constant for the complex coming apart. Compound `CCCC[C@H](NC(=O)[C@H](CO)NC(=O)[C@H](CO)NC(=O)[C@H](CC(C)C)NC(=O)[C@H](Cc1c[nH]cn1)NC(=O)[C@H](CCCCN)NC(=O)CNC(=O)[C@H](CC(C)C)NC(=O)[C@H](CC(N)=O)NC(=O)[C@H](Cc1c[nH]cn1)NC(=O)[C@H](CCCC)NC(=O)[C@H](Cc1ccccc1)NC(=O)[C@H](CCC(N)=O)NC(=O)[C@@H](NC(=O)[C@H](CCC(=O)O)NC(=O)[C@@H](N)CO)[C@@H](C)CC)C(=O)N[C@@H](CCC(=O)O)C(=O)N[C@@H](CCCNC(=N)N)C(=O)N[C@H](C(=O)N[C@@H](CCC(=O)O)C(=O)N[C@@H](Cc1c[nH]c2ccccc12)C(=O)N[C@@H](CC(C)C)C(=O)N[C@@H](CCCNC(=N)N)C(=O)N[C@@H](CCCCN)C(=O)N[C@@H](CCCCN)C(=O)N[C@@H](CC(C)C)C(=O)N[C@@H](CCC(N)=O)C(=O)N[C@@H](CC(=O)O)C(=O)N[C@H](C(=O)N[C@@H](Cc1c[nH]cn1)C(=O)N[C@@H](CC(N)=O)C(=O)N[C@@H](Cc1ccc(O)cc1)C(N)=O)C(C)C)C(C)C` [[Nle^8,18, Tyr^34]bPTH(3-34), [Nle^8,18, Tyr^34]bPTH(3–34) amide] (H-SEIQF[Nle]HNLGKHLSS[Nle]ERVEWLRKKLQDVHNY-NH2; N-terminus assumed) gave an EC50 on PTH2 receptor [3] (activation of adenylyl cyclase, figures in brackets) of 5.2 nM. For the same compound, the “agonist character” value on PTH2 receptor [3] (cAMP) is given as “partial agonists”. For the same compound, the Emax at PTH2 receptor [3] (read-out: Emax, % of response to 1 μM hPTH(1-34), intrinsic activity) worked out at 37 ± 3%; in experiment [4], 26 ± 4%. Besides, on human PTH1 receptor [1] (293PTH1 cells, cAMP), the “activation of the PTH1 receptor” value is listed as “not detected”. Besides, the Bmax at human PTH1 receptor [5] (homologous displacement experiments) is reported as 0.7 pmol/mg. The dissociation constant Kd at human PTH1 receptor [5] (reported previously) is 2 nM. The koff on human PTH1 receptor [6] (estimated by Equation 4 from [125I]TIP(7–39) association, read-out: dissociation rate constant of unlabeled ligand (converted)) was 0.0005 s⁻¹.

As to `CSCC[C@H](NC(=O)[C@H](Cc1ccc(O)c(I)c1)NC(=O)[C@H](CO)NC(=O)[C@H](CC(N)=O)NC(=O)[C@H](CC(C)C)NC(=O)[C@H](Cc1c[nH]c2ccccc12)NC(=O)[C@H](Cc1c[nH]cn1)NC(=O)[C@H](CCCNC(=N)N)NC(=O)[C@H](CCCNC(=N)N)NC(=O)[C@H](CCC(=O)O)NC(=O)[C@H](CC(C)C)NC(=O)[C@H](C)NC(=O)[C@H](C)NC(=O)[C@H](CC(C)C)NC(=O)[C@H](CC(C)C)NC(=O)[C@H](CCCNC(=N)N)NC(=O)[C@H](C)NC(=O)[C@H](CCCNC(=N)N)NC(=O)[C@H](CCC(=O)O)NC(=O)[C@H](CCCNC(=N)N)NC(=O)[C@H](Cc1ccccc1)NC(=O)[C@H](C)NC(=O)[C@H](C)NC(=O)[C@@H](N)CC(=O)O)C(=O)N[C@@H](Cc1c[nH]cn1)C(=O)N[C@@H](CCCCN)C(=O)N[C@@H](CC(C)C)C(=O)N[C@@H](CC(C)C)C(=O)N[C@H](C(=O)N[C@@H](CC(C)C)C(=O)N[C@@H](CC(=O)O)C(=O)N[C@@H](C)C(=O)N1CCC[C@H]1C(=O)O)C(C)C` [[^125I]TIP(7–39)] (H-DAAFRERARLLAALERRHWLNS[Tyr(3-I)]MHKLLVLDAP-OH; N-terminus and C-terminus assumed), the koff at human PTH1 receptor [6] (directly measured from dissociation time course, read-out: dissociation rate constant (k2) (converted)) was 0.00085 s⁻¹; on human PTH1 receptor [6] (estimate from the plot of kon(obs) vs. concentration of radioligand, read-out: dissociation rate constant (converted)), 0.00128 s⁻¹. Also, at human PTH1 receptor [6] (held constant in Equation 4 analysis, read-out: association rate constant (k1) (converted)), the kon is 1.48e+06 M⁻¹ s⁻¹. Moreover, the Bmax on human PTH1 receptor [6] (saturation experiments, n=3) was determined as 1.3 ± 0.1 pmol/mg.

These data come from patent US7122624B2, “Parathyroid hormone receptor ligands” (The United States of America as represented by the …, priority 1999, dated 2006).
